Results taken from US20250221930A1, “A COMPOSITION COMPRISING LIPID NANOPARTICLES AND AN ANTIFUNGAL POLYENE” (INSTITUT NATIONAL DE LA SANTÉ ET DE LA RECHERCHE MÉDICALE, priority 2022, published 2025).
Converted amounts (≈) assume the structure as drawn.

Columns and labels:
Rhizopus arrhizus 1 [1] = assay: Checkerboard MICs of AmB, ISA and PEG15HS in solution; type: cell-based; conditions: Rhizopus arrhizus, 1, RPMI, 24 h at 37° C.
Description: (§1) AmB minimum inhibitory concentrations (MIC) of each strain of Mucorales was measured in RPMI in the presence of different concentrations of ISA or PEG15HS as described by the EUCAST broth microdilution antifungal susceptibility test methodology with modification for the checkerboard procedure. Checkerboards were performed by adding 100 μL of two-fold dilutions of AmB (0.008 to 4 mg/L) and ISA (0.008 to 4 mg/L) or PEG15HS (0.04 to 2752 mg/L) in 96 well plates. One hundred microliters of a spore suspension at a concentration of 105 spores/mL were added to the wells, and the plates were incubated for 24 h at 37° C. […] Three experiments were performed for each strain.
(§2) AmB MIC of each strain of Mucorales was measured in RPMI in the presence of different concentrations of ISA and a constant concentration of PEG15HS (100 times the concentration of AmB) as described by the EUCAST broth microdilution antifungal susceptibility test methodology with modification for the checkerboard procedure. Checkerboards were performed by adding 100 μL of two-fold dilutions of AmB (0.008 to 4 mg/L)+PEG15HS (0.8 to 400 mg/L) and ISA (0.008 to 4 mg/L) in 96 well plates. One hundred microliters of a spore suspension at a concentration of 105 spores/mL were added to the wells, and the plates were incubated for 24 h at 37° C. […] Three experiments were performed for each strain. […]

L. corymbifera = assay: as above; type: cell-based, Lichtheimia corymbifera; conditions: Lichtheimia corymbifera, RPMI, 24 h at 37° C.
Description: as §1, §2

L. ramosa = assay: as above; type: cell-based, Lichtheimia ramosa; conditions: Lichtheimia ramosa, RPMI, 24 h at 37° C.
Description: as §1, §2

Lichtheimia corymbifera = assay: EUCAST MICs of AmB, ISA, AmB-loaded LNPs and AmB-ISA-loaded LNPs; type: cell-based; conditions: Lichtheimia corymbifera; 24 h at 37° C.
Description: (§3) Briefly, a mass (80-120 mg) of an oil phase consisting of triglycerides (Labrafac®, or tributyrin in different mass ratios, i.e. 100% Labrafac® to 100% tributyrin) was supplemented with AmB (0,025 to 0.2 mg) and ISA (0.25 to 5 mg) and then mixed with 80 to 120 mg of PEG15HS (Solutol HS15®) and 500 to 800 μl of water to form an oil-in-water emulsion. This emulsion was then heated to 85° C., to obtain a water-in-oil emulsion, and then cooled to 40° C. Three such temperature cycles were performed and the system was then fast cooled to 4° C. The formulated nanoparticles were then characterized by size distribution and mean zeta potential measurements. Examples of formulations of LNPs loaded with AmB and AmB-ISA are detailed in Table 5:
(§4) Rhizopus arrhizus 1, Lichtheimia corymbifera and Lichtheimia ramosa strains were used. These correspond to the most frequently encountered species in human mucormycosis. These three strains were isolated from patients suffering from pulmonary mucormycosis.
(§5) MICs of AmB in solution, ISA in solution, AmB-loaded LNPs, and AmB-ISA-loaded LNPs were evaluated according to the European Committee on Antimicrobial Susceptibility Testing (EUCAST) guidelines. Briefly, MICs were determined by adding 100 μL of two-fold dilutions of AmB in solution, ISA in solution, AmB-LNPs or AmB-ISA-LNPs (0.008 to 4 mg/L) in 96-well plates. One hundred microliters of a spore suspension at a concentration of 105 spores/mL were added to the wells, and the plates were incubated for 24 h (Mucorales) or 48 h (A. fumigatus) at 37° C. […] Three experiments were performed for each strain.

Rhizopus arrhizus 1 [2] = assay: as above; type: cell-based; conditions: Rhizopus arrhizus, 1; 24 h at 37° C.
Description: as §3, §4, §5

Lichtheimia ramosa = assay: as above; type: cell-based; conditions: Lichtheimia ramosa; 24 h at 37° C.
Description: as §3, §4, §5

Aspergillus fumigatus = assay: as above; type: cell-based; conditions: 48 h at 37° C.
Description: as §3
Two reference strains (ATCC 16424 and ATCC 204305) and a clinical azole-resistant strain (AfR2) of Aspergillus fumigatus were used.
as §5

SMILES: C[C@@H](c1nc(-c2ccc(C#N)cc2)cs1)[C@](O)(Cn1cncn1)c1cc(F)ccc1F [ISA, isavuconazole]
- MIC (Rhizopus arrhizus 1 [1]): 1 µg/mL
- MIC (L. corymbifera): 4 µg/mL
- MIC (L. ramosa): 4 µg/mL
- MIC (Lichtheimia corymbifera): 4 µg/mL (≈ 9.14 µM)
- MIC (Rhizopus arrhizus 1 [2]): 1 µg/mL (≈ 2.29 µM)
- MIC (Lichtheimia ramosa): 4 µg/mL (≈ 9.14 µM)
- MIC (Aspergillus fumigatus; ATCC16424, Aspergillus fumigatus 16 (ATCC 16424)): 0.5 µg/mL (≈ 1.14 µM)
- MIC (Aspergillus fumigatus; Aspergillus fumigatus, ATCC204305, A. fumigatus 20 (ATCC 204305)): 0.5 µg/mL (≈ 1.14 µM)
- MIC (Aspergillus fumigatus; Aspergillus fumigatus, A. fumigatus R2 (clinical azole-resistant strain AfR2)): > 4 µg/mL
